This assay deals with T1, Fatty-acid amide hydrolase 1 [30-579] (Rattus norvegicus, UniProt P97612).
T1 construct: 30-579
T1 sequence (P97612 whole entry): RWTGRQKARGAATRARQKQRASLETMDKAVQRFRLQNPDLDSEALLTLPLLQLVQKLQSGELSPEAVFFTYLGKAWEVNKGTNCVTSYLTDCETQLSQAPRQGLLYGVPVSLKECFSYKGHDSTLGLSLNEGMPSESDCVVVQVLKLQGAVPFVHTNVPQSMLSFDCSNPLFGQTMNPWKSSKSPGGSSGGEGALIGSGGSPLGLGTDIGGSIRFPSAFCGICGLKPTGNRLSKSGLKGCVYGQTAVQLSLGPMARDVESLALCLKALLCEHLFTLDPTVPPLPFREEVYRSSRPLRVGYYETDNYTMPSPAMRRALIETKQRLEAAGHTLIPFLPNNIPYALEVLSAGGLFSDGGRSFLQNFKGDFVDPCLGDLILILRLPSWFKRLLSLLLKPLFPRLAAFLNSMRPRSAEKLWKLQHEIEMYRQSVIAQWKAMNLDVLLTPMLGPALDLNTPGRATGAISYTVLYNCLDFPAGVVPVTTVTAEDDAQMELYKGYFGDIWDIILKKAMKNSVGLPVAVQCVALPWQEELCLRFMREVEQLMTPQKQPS
Briefly: FAAH Inhibition Assay. How it is done: Membrane fractions were prepared from Wistar rat brain homogenates, and FAAH activity were assayed by using [3H]anandamide (anandamide[ethanolamine-3H], 60 Cimmol-1, from American Radiolabeled Chemicals, St. Louis, USA) as a substrate.

Bounds are passed on as bounds.

The molecule `CN(C)c1ccc(OC(=O)NC2CCCCC2)cc1-c1ccccc1` [FAAH Inhibitor, 2i] came in with an IC50 of 1590 nM. As for `Nc1ccc(-c2ccccc2)cc1OC(=O)NC1CCCCC1` [FAAH Inhibitor, 2b], the IC50 came out at 4830 nM.

`O=C(NC1CCCCC1)Oc1cc(-c2ccccc2)ccc1[N+](=O)[O-]` [FAAH Inhibitor, 2a] yielded an IC50 above 30000 nM. `Cc1ccc(OC(=O)NC2CCCCC2)cc1-c1ccccc1` [FAAH Inhibitor, 2f] registered an IC50 of 176 nM. `Nc1ccc(OC(=O)NC2CCCCC2)cc1-c1ccccc1` [FAAH Inhibitor, 2d] returned an IC50 of 52 nM. Molecule `O=C(NC1CCCCC1)Oc1ccc(O)c(-c2ccccc2)c1` [FAAH Inhibitor, 2g] returned an IC50 of 45 nM. On to `O=C(NC1CCCCC1)Oc1ccc(CO)c(-c2ccccc2)c1` [FAAH Inhibitor, 2h], for which the IC50 was found to be 46 nM. The IC50 values of the last two molecules are within 1.5-fold of each other. Take `O=C(NC(=O)c1ccc(OC(=O)NC2CCCCC2)cc1-c1ccccc1)NC1CCCCC1` [FAAH Inhibitor, 2j]: the IC50 was 2740 nM. Take `O=C(NC1CCCCC1)Oc1cccc(Oc2cccc(-c3ccccc3)c2)c1` [FAAH Inhibitor, 2l]: the IC50 came out at 2740 nM. Consider `O=C(NC1CCCCC1)Oc1ccc2ccn(-c3ccccc3)c2c1` [FAAH Inhibitor, 2k], for which half-maximal inhibition (IC50) was put at 1030 nM. This IC50 is about 2.7-fold lower than that of the molecule before. In turn, `O=C(NC1CCCCC1)Oc1ccc([N+](=O)[O-])c(-c2ccccc2)c1` [FAAH Inhibitor, 2c] registered a half-maximal inhibitory concentration (IC50) above 30000 nM. To `NC(=O)c1ccc(OC(=O)NC2CCCCC2)cc1-c1ccccc1` [FAAH Inhibitor, 2e] belongs 252 nM.

For orientation: IC50 means the concentration needed to halve the response being measured.

These data come from BindingDB's records for doi:10.1002/cmdc.200500017 (2006).
